Experimental findings from patent US20100216767A1, “QUINAZOLINES FOR PDK1 INHIBITION” (priority 2006, published 2010) are described below.

The test deals with T1, PDK1 kinase (Homo sapiens, UniProt O15530).
T1 sequence (O15530 1-556): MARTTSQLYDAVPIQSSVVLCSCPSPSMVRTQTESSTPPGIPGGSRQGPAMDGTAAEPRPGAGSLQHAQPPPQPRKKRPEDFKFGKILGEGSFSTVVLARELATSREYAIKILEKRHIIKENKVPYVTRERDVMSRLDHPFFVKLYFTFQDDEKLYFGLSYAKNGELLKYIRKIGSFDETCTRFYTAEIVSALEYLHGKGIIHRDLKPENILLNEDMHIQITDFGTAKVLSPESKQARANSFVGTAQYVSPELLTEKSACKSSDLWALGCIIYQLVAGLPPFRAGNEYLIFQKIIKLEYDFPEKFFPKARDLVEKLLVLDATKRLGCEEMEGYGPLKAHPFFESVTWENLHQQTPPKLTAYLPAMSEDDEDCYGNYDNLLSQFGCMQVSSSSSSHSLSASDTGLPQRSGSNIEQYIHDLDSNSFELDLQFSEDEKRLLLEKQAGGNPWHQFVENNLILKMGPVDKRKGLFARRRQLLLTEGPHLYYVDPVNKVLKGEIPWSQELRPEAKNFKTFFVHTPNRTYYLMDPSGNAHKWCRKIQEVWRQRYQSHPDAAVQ
The experiment in a line: PDK1 Kinase Alpha Screen Assay. The class given is biochemical. Particulars: Table 1; 10 μM ATP, 50 nM PDK1-4 peptide. The method, then:
Reagents/Concentrations: The PDK1-4 peptide substrate, biotin-[…]-NH2, (SEQ ID NO: 1), was purchased from the Tufts University Core Facility. The final concentration of PDK1-4 peptide substrate was 50 nM. The ATP substrate (adenosine-[…] triphosphate) was purchased from Roche Diagnostics. The final concentration of ATP substrate was 10 μM. Phospho-(Ser/Thr) PKA substrate antibody was purchased from Cell Signaling Technology. The final concentration of antibody was 0.3 mg/mL. The Alpha Screen Protein A detection kit containing donor and acceptor beads was purchased from PerkinElmer Life Sciences. The final concentration of both donor and acceptor beads was 25 μg/mL. Alpha Screen was used for detection. The biotinylated-PDK1-4 peptide was phosphorylated by PDK1 kinase using the ATP substrate. The biotinylated-PDK1-4 peptide substrate was bound to the streptavidin coated donor bead. The antibody was bound to the protein A coated acceptor bead. The antibody bound to the phosphorylated form of the biotinylated PDK-1 peptide substrate, bringing the donor and acceptor beads into close proximity. Laser irradiation of the donor bead at 680 nm generated a flow of short-lived singlet oxygen molecules. When the donor and acceptor beads were in close proximity, the reactive oxygen generated by the irradiation of the donor beads initiated a luminescence/fluorescence cascade in the acceptor beads. This process led to a highly amplified signal with output in the 530-620 nm range. Assays were carried out in 50 mM Tris, pH=7.5, 10 mM MgCl2, 0.1% BSA, 0.01% Tween-20, 2 mM dithiolthreitol, 2.5% dimethyl sulfoxide. Reactions were stopped by adding 50 mM Tris, pH=7.5, 90 mM EDTA, 0.1% BSA, 0.01% Tween-20.
Procedure: To 10 μl, of PDK1-4 peptide, […] of test compound in dimethyl sulfoxide was added. PDK1 kinase and ATP were mixed, and 10 μL of the PDK1 kinase/ATP mix was added to start the reaction. The reaction was allowed to proceed for 3-18 hours. The reactions were then stopped by adding 10 μL of the EDTA-containing stop buffer. Beads were mixed with antibody, and 25 μL of the bead/antibody mix was then added to the stopped reactions. Plates were incubated at room temperature overnight to allow for detection development before being read. The assay was run in a 384-well format plate.

Regarding `COc1cc(Br)cc2cnc(Nc3ccc(S(N)(=O)=O)cc3)nc12` [Example 1, 4-(6-Bromo-8-methoxyquinazolin-2-ylamino)benzenesulfonamide], the IC50 – broadly, the concentration needed to halve the response being measured – is under 5 µM.
Molecule `C#Cc1cc(OC)c2nc(Nc3ccc(S(N)(=O)=O)cc3)ncc2c1` [Example 2, 4-(6-Ethynyl-8-methoxyquinazolin-2-ylamino)benzenesulfonamide] had an IC50 of under 5 µM.
In turn, `CCc1cc(OC)c2nc(Nc3ccc(S(N)(=O)=O)cc3)ncc2c1` [Example 3, 4-(6-Ethyl-8-methoxyquinazolin-2-ylamino)benzenesulfonamide] displayed an IC50 of under 5 µM.
On to `COc1cc(C#N)cc2cnc(Nc3ccc(S(N)(=O)=O)cc3)nc12` [Example 4, 4-(6-cyano-8-methoxyquinazolin-2-ylamino)benzene-sulfonamide], for which the IC50 is under 5 µM.
Regarding `COc1cc(C)cc2cnc(Nc3ccc(S(N)(=O)=O)cc3)nc12` [Example 5, 4-(8-Methoxy-6-methylquinazolin-2-ylamino)benzenesulfonamide], the IC50 was under 5 µM.
The same measure for `CC(=O)Nc1cc(CN(C)C)cc(Nc2ncc3cc(Br)cc(Cl)c3n2)c1` [Example 6, N-(3-(6-Bromo-8-chloroquinazolin-2-ylamino)-5-((dimethylamino)-methyl)phenyl)acetamide]: under 5 µM; for `C#Cc1cc(Cl)c2nc(Nc3cc(CN(C)C)cc(NC(C)=O)c3)ncc2c1` [Example 7, N-(3-(8-Chloro-6-ethynylquinazolin-2-ylamino)-5((dimethylamino)methyl)-phenyl)acetamide]: under 5 µM; for `C#Cc1ccc2nc(Nc3ccc(S(N)(=O)=O)cc3)ncc2c1` [Example 10, 4(6-Ethynylquinazolin-2-ylamino)benzenesulfonamide]: under 5 µM.
The same measure for `CC(C)NC(=O)c1ccc(Nc2ncc3cc(-c4nccs4)ccc3n2)cc1` [Example 12, N-Isopropyl-4-(6-(thiazol-2-yl)quinazolin-2-ylamino)benzamide]: under 5 µM; for `CC(C)NC(=O)c1ccc(Nc2ncc3cc(C#N)ccc3n2)cc1` [Example 13, 4-(6-Cyanoquinazolin-2-ylamino)-N-Isopropylbenzamide]: under 5 µM.
`COc1cc(Br)c(Cl)c2cnc(Nc3cc(CN(C)C)cc(NC(C)=O)c3)nc12` [Example 14, N-(3-(6-Bromo-5-chloro-8-methoxyquinazolin-2-ylamino)-5-((dimethylamino)methyl)phenyl)acetamide] registered an IC50 of under 5 µM.
Molecule `NS(=O)(=O)c1ccc(Nc2ncc3cc(C(=O)O)ccc3n2)cc1` [Example 19, Methyl 2-(4-sulfamoylphenylamimo)quinazolin-6-carboxylic acid] yielded an IC50 of under 5 µM.
In turn, `C#Cc1ccc2nc(Nc3ccc(C(=O)N4CCOCC4)cc3)ncc2c1Cl` [Example 22, (4-(5-Chloro-6-ethynylquinazolin-2-ylamino)phenyl)(morpholino) methanone] registered an IC50 of under 5 µM.
The molecule `Fc1c(Br)ccc2nc(Nc3ccc(N4CCOCC4)cc3)ncc12` [Example 23, 6-Bromo-5-fluoro-N-(4-morpholinophenyl)quinazolin-2-amine] displayed an IC50 of under 5 µM.
In the case of `C#Cc1ccc2nc(Nc3ccc(N4CCOCC4)cc3)ncc2c1F` [Example 24, 6-Ethynyl-5-fluoro-N-(4-morpholinophenyl)quinazolin-2-amine], the IC50 was under 5 µM.
The same measure for `NS(=O)(=O)c1ccc(Nc2ncc3cc(-c4nccs4)ccc3n2)cc1` [Example 27, 4-(6-(Thiazol-2-yl)quinazolin-2-ylamino)benzenesulfonamide]: under 5 µM; for `CC(=O)Nc1cc(CN2CCOCC2)cc(Nc2ncc3cc(-c4cn[nH]c4)ccc3n2)c1` [Example 30, N-(3-(6-(1H-Pyrazol-4-yl)quinazolin-2-ylamino)-5-(morpholinomethyl)phenyl)acetamide]: under 5 µM.
With `CC(=O)Nc1cc(I)cc(Nc2ncc3cc(Br)ccc3n2)c1` [Example 31, N-(3-(6-Bromoquinazolin-2-ylamino)-5-iodophenyl)acetamide], the IC50 was under 5 µM.
The molecule `CC(=O)Nc1cc(Nc2ncc3cc(Br)ccc3n2)cc(-c2cccnc2)c1` [Example 32, N-(3-(6-Bromoquinazolin-2-ylamino)-5-(pyridine-3-yl)phenyl)acetamide] displayed an IC50 of under 5 µM.
For `C#Cc1ccc2nc(Nc3cc(NC(C)=O)cc(-c4cccnc4)c3)ncc2c1` [Example 34, N-(3-(6-Ethynylyquinazolin-2-ylamino)-5-(pyridine-3-yl)phenyl)acetamide], the IC50 was under 5 µM.
`COc1cc2cnc(Nc3ccc(S(N)(=O)=O)cc3)nc2cc1OC` [Example 35, 4-(6,7-Dimethoxyquinazolin-2-ylamino)benzenesulfonamide] returned an IC50 of under 5 µM.
In the case of `COc1ccc2nc(Nc3ccc(C(N)=O)cc3)ncc2c1` [Example 36, 4-(6-methoxyquinazolin-2-ylamino)benzamide] it was under 5 µM; in that of `CNC(=O)c1ccc2nc(Nc3ccc(S(N)(=O)=O)cc3)ncc2c1` [Example 37, N-methyl-2-(4-sulfamoyl-phenylamino)quinazoline-6-carboxamide], 5 to 10 µM; in that of `NC(=O)c1ccc2nc(Nc3ccc(S(N)(=O)=O)cc3)ncc2c1` [Example 42, 2-(4-sulfamoylphenyl-amino)quinazoline-6-carboxamide], under 5 µM.
`NS(=O)(=O)c1ccc(Nc2ncc3cc(C(=O)NC4CC4)ccc3n2)cc1` [Example 43, N-cyclopropyl-2-(4-sulfamoylphenylamino)-quinazoline-6-carboxamide]: the IC50 is under 5 µM.
For the molecule `NS(=O)(=O)c1ccc(Nc2ncc3cc(-c4cccnc4F)ccc3n2)cc1` [Example 44, 4-(6-(2-fluoropyridin-3-yl)quinazolin-2-ylamino)-benzenesulfonamide], the IC50 was under 5 µM.
The molecule `CN1CCN(c2cc(-c3ccc4nc(Nc5ccc(S(N)(=O)=O)cc5)ncc4c3)ccn2)CC1` [Example 45, 4-(6-(2-(4-methyl-piperazin-1-yl)pyridin-4-yl)quinazolin-2-ylamino)-benzenesulfonamide] returned an IC50 of under 5 µM.
In turn, `COc1cc2nc(Nc3ccc(S(N)(=O)=O)cc3)ncc2cc1Br` [Example 47, 4-(6-Bromo-7-methoxyquinazolin-2-ylamino)benzenesulfonamide] gave an IC50 of under 5 µM.
`COc1cc2nc(Nc3ccc(S(=O)(=O)N4CCOCC4)cc3)ncc2cc1Br` [Example 48, 6-bromo-7-methoxy-N-(4-(morpholinosulfonyl)phenyl)-quinazolin-2-amine]: the IC50 was under 5 µM.
Molecule `C#Cc1cc2cnc(Nc3ccc(S(N)(=O)=O)cc3)nc2cc1OC` [Example 49, 4-(6-ethynyl-7-methoxy-quinazolin-2-ylamino)-benzenesulfonamide] displayed an IC50 of under 5 µM.
`C#Cc1cc2cnc(Nc3ccc(S(=O)(=O)N4CCOCC4)cc3)nc2cc1OC` [Example 50, 6-ethynyl-7-methoxy-N-(4-(morpholinosulfonyl)-phenyl)-quinazolin-2-amine] displayed an IC50 of under 5 µM.
`C#Cc1ccc2nc(Nc3cccc(N4CCOCC4)c3)ncc2c1` [Example 51, 6-ethynyl-N-(3-morpholinophenyl)-quinazolin-2-amine] registered an IC50 of under 5 µM.
Turning to `COc1cc(C#Cc2cccnc2)cc2cnc(Nc3ccc(S(N)(=O)=O)cc3)nc12` [Example 53, 4-(8-methoxy-6-(pyridin-3-ylethynyl)quinazolin-2-ylamino)benzene-sulfonamide], the IC50 was 10 to 25 µM.
